Active and inactive are the calls of the source. The calls are words filed in the database; no cut-off is given here.
Assays:
[1] = Toxicity in C57BL/6 mouse xenografted with mouse B16-F10 cells assessed as splenomegaly at 40 mg/kg, sc administered once daily for consecutive 5 days; assay type: organism-based; conditions: in vivo, 120 h, time 5 day
[2] = Genotoxicity in C57BL/6 mouse xenografted with mouse B16-F10 cells assessed as ratio of polychromatic erythrocytes to total erythrocytes in bone marrow cells at 40 mg/kg, sc for consecutive 5 days (reference value: 0.60 +/-0.01); assay type: toxicity, organism-based; conditions: in vivo, 120 h, time 5 day
[3] = Toxicity in C57BL/6 mouse xenografted with mouse B16-F10 cells assessed as change in body weight at 20 to 40 mg/kg, ip administered once daily for consecutive 5 days; assay type: organism-based; conditions: in vivo, 120 h, dose 20-40 mg/kg, time 5 day
[4] = Genotoxicity in C57BL/6 mouse xenografted with mouse B16-F10 cells assessed as ratio of polychromatic erythrocytes to total erythrocytes in bone marrow cells at 40 mg/kg, ip for consecutive 5 days (reference value: 0.91+/-0.01); assay type: toxicity, organism-based; conditions: in vivo, 120 h, time 5 day
[5] = Toxicity in C57BL/6 mouse xenografted with mouse B16-F10 cells assessed as change in lung weight at 20 to 40 mg/kg, sc administered once daily for consecutive 5 days relative to control; assay type: organism-based; conditions: in vivo, 120 h, dose 20-40 mg/kg, time 5 day
B16-F10 [6] = assay: Antitumor activity against mouse B16-F10 cells bearing C57BL/6 mouse assessed as reduction in tumor weight at 40 mg/kg, ip administered once daily for consecutive 5 days relative to control (reference value: 71.1%); assay type: functional; design: scale not given: the % may be the effect or the level left; conditions: time 5 day
[7] = Toxicity in C57BL/6 mouse xenografted with mouse B16-F10 cells assessed as splenomegaly at 40 mg/kg, po administered once daily for consecutive 5 days; assay type: organism-based; conditions: in vivo, 120 h, time 5 day
[8] = Genotoxicity in C57BL/6 mouse xenografted with mouse B16-F10 cells assessed as micronucleated polychromatic erythrocytes frequency in bone marrow cells at 40 mg/kg, sc for consecutive 5 days (reference value: 10.00 +/-2.00); assay type: toxicity, organism-based; conditions: in vivo, 120 h, time 5 day
[9] = Toxicity in C57BL/6 mouse xenografted with mouse B16-F10 cells assessed as body weight loss at 20 mg/kg, po administered once daily for consecutive 5 days in presence of cisplatin relative to control; assay type: organism-based; conditions: in vivo, 120 h, time 5 day
[10] = Genotoxicity in C57BL/6 mouse xenografted with mouse B16-F10 cells assessed as micronucleated polychromatic erythrocytes frequency in bone marrow cells at 20 mg/kg, sc for consecutive 5 days (reference value: 10.00 +/-2.00); assay type: toxicity, organism-based; conditions: in vivo, 120 h, time 5 day
[11] = Genotoxicity in C57BL/6 mouse xenografted with mouse B16-F10 cells assessed as micronucleated polychromatic erythrocytes frequency in bone marrow cells at 40 mg/kg, po for consecutive 5 days (reference value: 6.00 +/-1.00); assay type: toxicity, organism-based; conditions: in vivo, 120 h, time 5 day
B16-F10 [12] = assay: Antitumor activity against mouse B16-F10 cells bearing C57BL/6 mouse assessed as reduction in tumor weight at 20 mg/kg, po administered once daily for consecutive 5 days relative to control; assay type: functional; design: scale not given: the % may be the effect or the level left; conditions: time 5 day
B16-F10 [13] = assay: Antitumor activity against mouse B16-F10 cells bearing C57BL/6 mouse assessed as reduction in mitotic figures at 40 mg/kg, ip administered once daily for consecutive 5 days by H and E staining microscopic analysis; assay type: functional, organism-based; conditions: time 5.0 day
[14] = Toxicity in C57BL/6 mouse xenografted with mouse B16-F10 cells assessed as change in lung weight at 20 to 40 mg/kg, po administered once daily for consecutive 5 days relative to control; assay type: organism-based; conditions: in vivo, 120 h, dose 20-40 mg/kg, time 5 day
B16-F10 [15] = assay: Antitumor activity against mouse B16-F10 cells bearing C57BL/6 mouse assessed as reduction in tumor weight at 20 mg/kg, po administered once daily for consecutive 5 days in presence of cisplatin relative to control; assay type: functional; design: scale not given: the % may be the effect or the level left; conditions: time 5 day
[16] = Genotoxicity in C57BL/6 mouse xenografted with mouse B16-F10 cells assessed as ratio of polychromatic erythrocytes to total erythrocytes in bone marrow cells at 40 mg/kg, po for consecutive 5 days (reference value: 0.90 +/-0.04); assay type: toxicity, organism-based; conditions: in vivo, 120 h, time 5 day
B16-F10 [17] = assay: Antitumor activity against mouse B16-F10 cells bearing C57BL/6 mouse assessed as reduction in tumor weight at 40 mg/kg, po administered once daily for consecutive 5 days relative to control; assay type: functional; design: scale not given: the % may be the effect or the level left; conditions: time 5 day
[18] = Toxicity in C57BL/6 mouse xenografted with mouse B16-F10 cells assessed as change in lung weight at 20 to 40 mg/kg, ip administered once daily for consecutive 5 days relative to control; assay type: organism-based; conditions: in vivo, 120 h, dose 20-40 mg/kg, time 5 day
[19] = Toxicity in C57BL/6 mouse xenografted with mouse B16-F10 cells assessed as reduction in spleen weight at 20 mg/kg, po administered once daily for consecutive 5 days; assay type: organism-based; conditions: in vivo, 120 h, time 5 day
[20] = Toxicity in C57BL/6 mouse xenografted with mouse B16-F10 cells assessed as change in kidney weight at 20 to 40 mg/kg, sc administered once daily for consecutive 5 days relative to control; assay type: organism-based; conditions: in vivo, 120 h, dose 20-40 mg/kg, time 5 day
B16-F10 [21] = assay: Antitumor activity against mouse B16-F10 cells bearing C57BL/6 mouse assessed as reduction in number of mitotic figures at 20 mg/kg, po administered once daily for consecutive 5 days in presence of cisplatin by H and E staining microscopic analysis; assay type: functional, organism-based; conditions: time 5.0 day
[22] = Toxicity in C57BL/6 mouse xenografted with mouse B16-F10 cells assessed as change in body weight at 20 to 40 mg/kg, sc administered once daily for consecutive 5 days; assay type: organism-based; conditions: in vivo, 120 h, dose 20-40 mg/kg, time 5 day
[23] = Toxicity in C57BL/6 mouse xenografted with mouse B16-F10 cells assessed as change in heart weight at 20 to 40 mg/kg, ip administered once daily for consecutive 5 days relative to control; assay type: organism-based; conditions: in vivo, 120 h, dose 20-40 mg/kg, time 5 day
[24] = Toxicity in C57BL/6 mouse xenografted with mouse B16-F10 cells assessed as change in body weight at 20 to 40 mg/kg, po administered once daily for consecutive 5 days; assay type: organism-based; conditions: in vivo, 120 h, dose 20-40 mg/kg, time 5 day
[25] = Toxicity in C57BL/6 mouse xenografted with mouse B16-F10 cells assessed as reduction in spleen weight at 20 mg/kg, sc administered once daily for consecutive 5 days; assay type: organism-based; conditions: in vivo, 120 h, time 5 day
[26] = Genotoxicity in C57BL/6 mouse xenografted with mouse B16-F10 cells assessed as ratio of polychromatic erythrocytes to total erythrocytes in bone marrow cells at 20 mg/kg, po for consecutive 5 days (reference value: 0.90 +/-0.04); assay type: toxicity, organism-based; conditions: in vivo, 120 h, time 5 day
[27] = Toxicity in C57BL/6 mouse xenografted with mouse B16-F10 cells assessed as reduction in spleen weight at 20 mg/kg, ip administered once daily for consecutive 5 days; assay type: organism-based; conditions: in vivo, 120 h, time 5 day
B16-F10 [28] = assay: Antitumor activity against mouse B16-F10 cells bearing C57BL/6 mouse assessed as reduction in tumor weight at 20 mg/kg, ip administered once daily for consecutive 5 days relative to control (reference value: 71.1%); assay type: functional; design: scale not given: the % may be the effect or the level left; conditions: time 5 day
[29] = Toxicity in C57BL/6 mouse xenografted with mouse B16-F10 cells assessed as change in kidney weight at 20 to 40 mg/kg, po administered once daily for consecutive 5 days relative to control; assay type: organism-based; conditions: in vivo, 120 h, dose 20-40 mg/kg, time 5 day
[30] = Toxicity in C57BL/6 mouse xenografted with mouse B16-F10 cells assessed as change in heart weight at 20 to 40 mg/kg, sc administered once daily for consecutive 5 days relative to control; assay type: organism-based; conditions: in vivo, 120 h, dose 20-40 mg/kg, time 5 day
[31] = Genotoxicity in C57BL/6 mouse xenografted with mouse B16-F10 cells assessed as micronucleated polychromatic erythrocytes frequency in bone marrow cells at 20 mg/kg, ip for consecutive 5 days (reference value: 8.00); assay type: toxicity, organism-based; conditions: in vivo, 120 h, time 5 day
[32] = Genotoxicity in C57BL/6 mouse xenografted with mouse B16-F10 cells assessed as ratio of polychromatic erythrocytes to total erythrocytes in bone marrow cells at 20 mg/kg, ip for consecutive 5 days (reference value: 0.91+/-0.01); assay type: toxicity, organism-based; conditions: in vivo, 120 h, time 5 day
[33] = Toxicity in C57BL/6 mouse xenografted with mouse B16-F10 cells assessed as splenomegaly at 40 mg/kg, ip administered once daily for consecutive 5 days; assay type: organism-based; conditions: in vivo, 120 h, time 5 day
[34] = Genotoxicity in C57BL/6 mouse xenografted with mouse B16-F10 cells assessed as ratio of polychromatic erythrocytes to total erythrocytes in bone marrow cells at 20 mg/kg, sc for consecutive 5 days (reference value: 0.60 +/-0.01); assay type: toxicity, organism-based; conditions: in vivo, 120 h, time 5 day
[35] = Toxicity in C57BL/6 mouse xenografted with mouse B16-F10 cells assessed as splenomegaly at 20 mg/kg, ip administered once daily for consecutive 5 days; assay type: organism-based; conditions: in vivo, 120 h, time 5 day
B16-F10 [36] = assay: Antitumor activity against mouse B16-F10 cells bearing C57BL/6 mouse assessed as reduction in tumor weight at 20 mg/kg, sc administered once daily for consecutive 5 days relative to control (reference value: 50.7%); assay type: functional; design: scale not given: the % may be the effect or the level left; conditions: time 5 day
[37] = Genotoxicity in C57BL/6 mouse xenografted with mouse B16-F10 cells assessed as micronucleated polychromatic erythrocytes frequency in bone marrow cells at 20 mg/kg, po for consecutive 5 days (reference value: 6.00 +/-1.00); assay type: toxicity, organism-based; conditions: in vivo, 120 h, time 5 day
[38] = Genotoxicity in C57BL/6 mouse xenografted with mouse B16-F10 cells assessed as micronucleated polychromatic erythrocytes frequency in bone marrow cells at 40 mg/kg, ip for consecutive 5 days (reference value: 8.00); assay type: toxicity, organism-based; conditions: in vivo, 120 h, time 5 day
[39] = Toxicity in C57BL/6 mouse xenografted with mouse B16-F10 cells assessed as change in heart weight at 20 to 40 mg/kg, po administered once daily for consecutive 5 days relative to control; assay type: organism-based; conditions: in vivo, 120 h, dose 20-40 mg/kg, time 5 day
[40] = Toxicity in C57BL/6 mouse xenografted with mouse B16-F10 cells assessed as change in kidney weight at 20 to 40 mg/kg, ip administered once daily for consecutive 5 days relative to control; assay type: organism-based; conditions: in vivo, 120 h, dose 20-40 mg/kg, time 5 day

Which Activity [1] does the source give for C=C[C@](C)(O)CC[C@H]1C(=C)CC[C@H]2C(C)(C)CCC[C@]12C here?
Its Activity is “Toxic”.

And the Ratio [2]?
The Ratio was 0.85.

And the Activity [3]?
Its Activity is “Non-Toxic”.

And the Ratio [4]?
Its Ratio is 0.83.

And the Activity [5]?
Its Activity is “Non-Toxic”.

What about the Activity (B16-F10 [6]) of the same compound?
Its Activity is 64.9%.

And the Activity [7]?
Its Activity is “Toxic”.

What about the Activity [8] of the same compound?
The Activity was 7.33.

What about the Activity [9] of the same compound?
Its Activity is “Toxic”.

What about the Activity [10] of the same compound?
The Activity was 6.

What about the Activity [11] of the same compound?
Its Activity is 6.

And the Activity (B16-F10 [12])?
The Activity was 62.4%.

And the Activity (B16-F10 [13])?
The Activity was “Active”.

And the Activity [14]?
Its Activity is “Non-Toxic”.

What about the Activity (B16-F10 [15]) of the same compound?
The Activity was 86.7%.

What about the Ratio [16] of the same compound?
The Ratio was 0.9.

And the Activity (B16-F10 [17])?
The Activity was 9.3%.

What about the Activity [18] of the same compound?
The Activity was “Non-Toxic”.

What about the Activity [19] of the same compound?
The Activity was “Non-Toxic”.

And the Activity [20]?
Its Activity is “Non-Toxic”.

And the Activity (B16-F10 [21])?
Its Activity is “Active”.

And the Activity [22]?
Its Activity is “Non-Toxic”.

What about the Activity [23] of the same compound?
Its Activity is “Non-Toxic”.

What about the Activity [24] of the same compound?
The Activity was “Non-Toxic”.

What about the Activity [25] of the same compound?
The Activity was “Non-Toxic”.

And the Ratio [26]?
Its Ratio is 0.92.

What about the Activity [27] of the same compound?
The Activity was “Toxic”.

What about the Activity (B16-F10 [28]) of the same compound?
The Activity was 48.5%.

And the Activity [29]?
Its Activity is “Non-Toxic”.

And the Activity [30]?
The Activity was “Non-Toxic”.

And the Activity [31]?
Its Activity is 5.67.

And the Ratio [32]?
The Ratio was 0.82.

And the Activity [33]?
The Activity was “Toxic”.

And the Ratio [34]?
The Ratio was 0.85.

And the Activity [35]?
Its Activity is “Toxic”.

What about the Activity (B16-F10 [36]) of the same compound?
The Activity was 38.8%.

What about the Activity [37] of the same compound?
The Activity was 8.

And the Activity [38]?
Its Activity is 4.33.

What about the Activity [39] of the same compound?
The Activity was “Non-Toxic”.

And the Activity [40]?
Its Activity is “Non-Toxic”.
